Measured values reported in patent US20060069132A1, “Azolecarboxamide herbicides” (priority 2004, published 2006).

Legend:
[1] = test system: cocklebur; assay: Test C pre-/postemergence herbicide test; format: in vivo, Xanthium strumarium; conditions: preemergence; for Plant response rating (0 = no effect, 100 = complete control), Cocklebur: 125 g ai/ha
In short: (§1)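 Pre- and postemergence application, solvent/surfactant formulation; post at 1- to 4-leaf stage (2–18 cm). Greenhouse 12–14 d. Visual rating vs controls, 0 = no effect, 100 = complete control.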

[2] = test system: giant foxtail; assay: Test C pre-/postemergence herbicide test; format: in vivo, Setaria faberi; conditions: preemergence; for Plant response rating (0 = no effect, 100 = complete control), Foxtail, Giant: 125 g ai/ha
In short: as §1

[3] = test system: yellow nutsedge; assay: Test C pre-/postemergence herbicide test; format: in vivo, Cyperus esculentus; conditions: preemergence; for Plant response rating (0 = no effect, 100 = complete control), Nutsedge, Yellow: 125 g ai/ha
In short: as §1

[4] = test system: eastern black nightshade; assay: Test C pre-/postemergence herbicide test; format: in vivo, Solanum ptycanthum; conditions: preemergence; for Plant response rating (0 = no effect, 100 = complete control), Nightshade: 125 g ai/ha
In short: as §1

[5] = test system: johnsongrass; assay: Test C pre-/postemergence herbicide test; format: in vivo, Sorghum halepense; conditions: preemergence; for Plant response rating (0 = no effect, 100 = complete control), Johnsongrass: 125 g ai/ha
In short: as §1

[6] = test system: morningglory; assay: Test C pre-/postemergence herbicide test; format: in vivo, Ipomoea coccinea; design: key to Plant response rating, Morningglory: 0 = no effect, 100 = complete control; conditions: preemergence; for Plant response rating (0 = no effect, 100 = complete control), Morningglory: 125 g ai/ha
In short: as §1

[7] = test system: ducksalad; assay: Test C flooded paddy test; format: in vivo, Heteranthera limosa
[8] = test system: barnyardgrass; assay: Test C flooded paddy test; format: in vivo, Echinochloa crus-galli
In short: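 Weeds and wheat were sprayed after emergence, at a height of 2 to 18 cm (1–4 leaves), and paddy barnyardgrass was flooded and treated at two leaves. Assessment took place 12–14 days later in the greenhouse on a 0-to-100 visual control scale. A dash means no result was obtained.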

[9] = test system: Surinam grass; assay: Test C pre-/postemergence herbicide test; format: in vivo, Urochloa decumbens; conditions: preemergence; for Plant response rating (0 = no effect, 100 = complete control), Surinam Grass: 125 g ai/ha
In short: as §1

[10] = test system: redroot pigweed; assay: Test A pre-/postemergence herbicide test; format: in vivo, Amaranthus retroflexus
In short: (§2)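 Visual injury rating on a 0–100 scale (0 no effect, 100 complete control) versus untreated controls, about ten days after treatment in greenhouse. Pre: directed soil spray onto seeded sandy loam. Post: spray to runoff on plants 2–10 cm tall at one- to two-leaf stage.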

[11] = test system: barnyardgrass; assay: Test A pre-/postemergence herbicide test; format: in vivo, Echinochloa crus-galli
In short: as §2

[12] = test system: velvetleaf; assay: Test A pre-/postemergence herbicide test; format: in vivo, Abutilon theophrasti
In short: as §2

[13] = test system: giant foxtail; assay: Test A pre-/postemergence herbicide test; format: in vivo, Setaria faberi
In short: as §2

[14] = 500 g ai/ha, scale 0 to 100 (0 no effect, 100 complete control), visual, 12 to 14 days
[15] = 125 g ai/ha, scale 0 to 100 (0 no effect, 100 complete control)
[16] = 250 g ai/ha, scale of 0 to 100, 0 is no effect, 100 is complete control
[17] = 500 g ai/ha, visual rating after 12 to 14 days, scale 0 to 100 (0 no effect, 100 complete control)
[18] = Postemergence, 500 g ai/ha, 0 to 100 scale, 0 no effect, 100 complete control
[19] = Postemergence, 2000 g ai/ha, 0 to 100 scale, 0 no effect, 100 complete control
[20] = Preemergence, 2000 g ai/ha, visual rating, 0 to 100 scale (0 no effect, 100 complete control)
[21] = preemergence, 500 g ai/ha, visual injury, 0 to 100 scale (0 no effect, 100 complete control)

## CCC1=NN(C(C)(C)C)CC1C(=O)Nc1cc(C(=O)N2CCCC2)ccc1F (racemic) [Compound 341]
[1]; 62 g ai/ha, scale 0 to 100
  Plant response rating, Cocklebur: 0
[1]
  Plant response rating (0 = no effect, 100 = complete control), Cocklebur: 10
[1]; 250 g ai/ha, scale 0-100
  Plant response rating, Cocklebur: 50
[1]; [14]
  Plant response rating, Cocklebur: 100
[2]; 62 g ai/ha, scale 0 to 100
  Plant response rating, Foxtail, Giant: 0
[2]
  Plant response rating (0 = no effect, 100 = complete control), Foxtail, Giant: 50
[2]; 250 g ai/ha, scale 0-100
  Plant response rating, Foxtail, Giant: 55
[2]; [14]
  Plant response rating, Foxtail, Giant: 80
[3]; 62 g ai/ha, scale 0 to 100
  Plant response rating, Nutsedge, Yellow: 0
[3]
  Plant response rating (0 = no effect, 100 = complete control), Nutsedge, Yellow: 0
[3]; 250 g ai/ha, scale 0-100
  Plant response rating, Nutsedge, Yellow: 30
[3]; [14]
  Plant response rating, Nutsedge, Yellow: 60
[4]; 62 g ai/ha, scale 0 to 100
  Plant response rating, Nightshade: 50
[4]
  Plant response rating (0 = no effect, 100 = complete control), Nightshade: 55
[4]; 250 g ai/ha, scale 0-100
  Plant response rating, Nightshade: 100
[4]; [14]
  Plant response rating, Nightshade: 100
[5]; 62 g ai/ha, scale 0 to 100
  Plant response rating, Johnsongrass: 15
[5]
  Plant response rating (0 = no effect, 100 = complete control), Johnsongrass: 85
[5]; 250 g ai/ha, scale 0-100
  Plant response rating, Johnsongrass: 100
[5]; [14]
  Plant response rating, Johnsongrass: 100
[6]; 62 g ai/ha, scale 0 to 100
  Plant response rating, Morningglory: 0
[6]
  Plant response rating (0 = no effect, 100 = complete control), Morningglory: 5
[6]; 250 g ai/ha, scale 0-100
  Plant response rating, Morningglory: 5
[6]; [14]
  Plant response rating, Morningglory: 50
[7]; 62 g ai/ha, scale 0 to 100
  Ducksalad plant response rating: 20
[7]; [15]
  Ducksalad plant response rating: 50
[7]; [16]
  Ducksalad plant response rating: 60
[7]; [17]
  Plant response rating, Ducksalad: 60
[8]; 62 g ai/ha, scale 0 to 100 (0 no effect, 100 complete control)
  Barnyardgrass plant response rating: 30
[8]; [15]
  Barnyardgrass plant response rating: 30
[8]; [16]
  Barnyardgrass plant response rating: 50
[8]; [17]
  Plant response rating, Barnyardgrass: 60
[9]; 62 g ai/ha, scale 0 to 100
  Plant response rating, Surinam Grass: 60
[9]
  Plant response rating (0 = no effect, 100 = complete control), Surinam Grass: 95
[9]; 250 g ai/ha, scale 0-100
  Plant response rating, Surinam Grass: 100
[9]; [14]
  Plant response rating, Surinam Grass: 100

## CCc1nn(C(C)(C)C)nc1C(=O)Nc1cccc(C(=O)NC2CC2)c1 [Compound 417]
[10]; [18]
  Pigweed plant response rating: 100
[10]; [19]
  Plant response rating, Pigweed: 100
[10]; [20]
  Pigweed plant response rating: 100
[10]; [21]
  Pigweed plant response rating: 95
[11]; [18]
  Barnyardgrass plant response rating: 65
[11]; [19]
  Plant response rating, Barnyardgrass: 80
[11]; [20]
  Barnyardgrass plant response rating: 85
[11]; [21]
  Barnyardgrass plant response rating: 60
[12]; [18]
  Velvetleaf plant response rating: 60
[12]; [19]
  Plant response rating, Velvetleaf: 90
[12]; [20]
  Velvetleaf plant response rating: 70
[12]; [21]
  Velvetleaf plant response rating: 55
[1]; 62 g ai/ha, scale 0 to 100
  Plant response rating, Cocklebur: 0
[1]
  Plant response rating (0 = no effect, 100 = complete control), Cocklebur: 0
[1]; 250 g ai/ha, scale 0-100
  Plant response rating, Cocklebur: 0
[1]; [14]
  Plant response rating, Cocklebur: 0
[2]; 62 g ai/ha, scale 0 to 100
  Plant response rating, Foxtail, Giant: 65
[2]
  Plant response rating (0 = no effect, 100 = complete control), Foxtail, Giant: 90
[2]; 250 g ai/ha, scale 0-100
  Plant response rating, Foxtail, Giant: 95
[2]; [14]
  Plant response rating, Foxtail, Giant: 100
[3]; 62 g ai/ha, scale 0 to 100
  Plant response rating, Nutsedge, Yellow: 0
[3]
  Plant response rating (0 = no effect, 100 = complete control), Nutsedge, Yellow: 0
[3]; [14]
  Plant response rating, Nutsedge, Yellow: 0
[4]; 62 g ai/ha, scale 0 to 100
  Plant response rating, Nightshade: 55
[4]
  Plant response rating (0 = no effect, 100 = complete control), Nightshade: 60
[4]; [14]
  Plant response rating, Nightshade: 95
[5]; 62 g ai/ha, scale 0 to 100
  Plant response rating, Johnsongrass: 100
[5]
  Plant response rating (0 = no effect, 100 = complete control), Johnsongrass: 100
[5]; 250 g ai/ha, scale 0-100
  Plant response rating, Johnsongrass: 100
[5]; [14]
  Plant response rating, Johnsongrass: 100
[13]; [18]
  Foxtail, Giant plant response rating: 75
[13]; [19]
  Plant response rating, Foxtail, Giant: 85
[13]; [20]
  Foxtail, Giant plant response rating: 100
[13]; [21]
  Foxtail, Giant plant response rating: 90
[6]; 62 g ai/ha, scale 0 to 100
  Plant response rating, Morningglory: 0
[6]
  Plant response rating (0 = no effect, 100 = complete control), Morningglory: 20
[6]; [14]
  Plant response rating, Morningglory: 95
[9]; 62 g ai/ha, scale 0 to 100
  Plant response rating, Surinam Grass: 0
[9]
  Plant response rating (0 = no effect, 100 = complete control), Surinam Grass: 75
[9]; [14]
  Plant response rating, Surinam Grass: 95
